Assay results from patent EP0478235A2, “A directed biosynthesis for an immunomycin derivative” (MERCK & CO. INC., priority 1990, dated 1992).

Tested on: T lymphocytes
Assay: T-cell proliferation assay (tritiated thymidine incorporation, ionomycin + PMA stimulation)
Format: cell-based, C57B1/6 mice
Conditions: T-lymphocyte
Protocol: Purified compound, or fractions, prepared by HPLC, was dissolved in absolute ethanol at a final concentration of 100 µg/ml.
Spleens from C57B1/6 mice were taken under sterile conditions and gently dissociated in ice-cold RPMI 1640 culture medium (GIBCO, Grand Island, N. Y.) supplemented with 10% heat-inactivated fetal calf serum (GIBCO). Cells were pelleted by centrifugation at 1500 rpm for 8 minutes. Contaminating red cells were removed by treating the pellet with ammonium chloride lysing buffer (GIBCO) for 2 minutes at 4°C. Cold medium was added and cells were again centrifuged at 1500 rpm for 8 minutes. T lymphocytes were then isolated by separation of the cell suspension on nylon wool columns as follows: Nylon wool columns were prepared by packing approximately 4 grams of washed and dried nylon wool into 20 ml plastic syringes. The columns were sterilized by autoclaving at 250°F for 30 minutes. Nylon wool columns were wetted with warm (37°C) culture medium and rinsed with the same medium. Washed spleen cells resuspended in warm medium were slowly applied to the nylon wool. The columns were then incubated in an upright position at 37°C for 1 hour. Non-adherent T lymphocytes were eluted from the columns with warm culture medium and the cell suspensions were spun as above.
Purified T lymphocytes were resuspended at […] in complete culture medium composed of RPMI 1640 medium with 10% heat-inactivated fetal calf serum, […], 1mM sodium pyruvate, 2 x 10⁻⁵M 2-mercaptoethanol and 50 µg/ml gentamycin. Ionomycin was added at 250 ng/ml and PMA at 10 ng/ml. The cell suspension was immediately distributed into 96 well flat-bottom microculture plates (Costar) at 200 µl/well. The control, being the medium without test drug, and various below-indicated dilutions of the sample (above-described purified prolylimmunomycin) to be tested were then added in triplicate wells at 20 µl/well. FK-520 was used as a standard. The culture plates were then incubated at 37°C in a humidified atmosphere of 5% CO₂-95% air for 44 hours. The proliferation of T lymphocytes was assessed by measurement of tritiated thymidine incorporation. After 44 hours of culturing, the cells were pulse-labelled with 2 µCi/well of tritiated thymidine (NEN, Cambridge, MA). After another 4 hours of incubation, cultures were harvested on glass fiber filters using a multiple sample harvester. Radioactivity of filter discs corresponding to individual wells as measured by standard liquid scintillation counting methods (Betacounter). Mean counts per minute of replicate wells were calculated and the results expressed as percent inhibition of tritiated thymidine uptake (profileration) as follows: Inhibition = 100 -(Mean cpm sample tested X 100.)/(Mean cpm control medium) [formula]

Compound	inhibition at 0.004 µg/mL (Mus musculus, 4 ng/ml, standard) [%]	inhibition at 0.0019 µg/mL (1.9 ng/ml, mouse T cell cultures pulsed with 3H-thymidine for 4 hours prior to harvesting at 48 hours) [%]	inhibition at 0.0039 µg/mL (3.9 ng/ml, mouse T cell cultures pulsed with 3H-thymidine for 4 hours prior to harvesting at 48 hours) [%]	inhibition at 0.0078 µg/mL (7.8 ng/ml, mouse T cell cultures pulsed with 3H-thymidine for 4 hours prior to harvesting at 48 hours) [%]	inhibition at 0.0155 µg/mL (15.5 ng/ml, mouse T cell cultures pulsed with 3H-thymidine for 4 hours prior to harvesting at 48 hours) [%]	inhibition at 0.031 µg/mL (31.0 ng/ml, mouse T cell cultures pulsed with 3H-thymidine for 4 hours prior to harvesting at 48 hours) [%]	inhibition at 0.062 µg/mL (62.0 ng/ml, mouse T cell cultures pulsed with 3H-thymidine for 4 hours prior to harvesting at 48 hours) [%]
CC[C@@H]1/C=C(\C)C[C@H](C)C[C@H](OC)[C@H]2O[C@@](O)(C(=O)C(=O)N3CCCC[C@H]3C(=O)O[C@H](/C(C)=C/[C@@H]3CC[C@@H](O)[C@H](OC)C3)[C@H](C)[C@@H](O)CC1=O)[C@H](C)C[C@@H]2OC [FK-520, immunomycin]	99	–	–	–	–	–	–
CC[C@@H]1/C=C(\C)C[C@H](C)C[C@H](OC)[C@H]2O[C@@](O)(C(=O)C(=O)N3CCC[C@H]3C(=O)O[C@H](/C(C)=C/[C@@H]3CC[C@@H](O)[C@H](OC)C3)[C@H](C)[C@@H](O)CC1=O)[C@H](C)C[C@@H]2OC [Prolyl-Immunomycin, prolyl-immunomycin]	–	8.2	47	84.8	94.3	96.3	97.8
